Measured values reported in patent publication US9481667B2, “Salts and solid forms of isoquinolinones and composition comprising and methods of using the same” (Infinity Pharmaceuticals, Inc., priority 2013, dated 2016).
≈ marks a conversion by molar mass, not a printed value. Counter-ions that a name gives are not always drawn.

Assays:
Type in all cases: physicochemical
[1] = Stability on standing at ambient/room conditions
Text: The bis-sulfuric acid salt is difficult to crystallise in an anhydrous environment. The experiment in methanol produced a clear solution, which then became an oil after solvent evaporation.

[2] = Thermodynamic aqueous solubility; conditions: aqueous, thermodynamic from solid
[3] = Storage at 25° C./93% RH (solid-state stability); conditions: for Stability on storage at 25° C./93% RH: 1 week, solid form by XRPD
[4] = Storage at 40° C./75% RH (solid-state stability); conditions: for Stability on storage at 40° C./75% RH: 1 week, solid form by XRPD
Procedure: The crystalline solids were filtered, dried at ambient conditions, and stored at 40° C./75% RH for 1 week and analyzed by ^1H NMR/IC.
Samples from the screen using amorphous free base Compound 1 were analysed by ^1H-NMR and DSC, and re-analysis by XRPD was also carried out after drying at 50° C./vacuum and storage at 40° C./75% RH (the same sample was dried and stored at elevated humidity).

[5] = Free base solubility assessment in solvents
Procedure: Approximately 11 mg (0.022 mmol) portions of the free base Form 1 of Compound 1 (i.e., the compound of formula (I)) were weighed into 2 ml screw-topped HPLC vials. One of 15 solvents was added to each vial in a number of aliquots (up to 100 volumes), with shaking and if necessary with heating to 40° C., in an attempt to achieve dissolution.

[6] = Gravimetric vapour sorption (GVS)
Procedure: Sorption isotherms were obtained using a Hiden IGASorp moisture sorption analyser, controlled by CFRSorp software. The sample temperature was maintained at 25° C. by a Huber re-circulating water bath. The humidity was controlled by mixing streams of dry and wet nitrogen, with a total flow rate of 250 ml/min. The relative humidity (RH) was measured by a calibrated Vaisala RH probe (dynamic range of 0-95% RH), located near the sample. The weight change, (mass relaxation) of the sample as a function of % RH was constantly monitored by the microbalance (accuracy ±0.001 mg). Typically 10-20 mg of sample was placed in a tared mesh stainless steel basket under ambient conditions. The sample was loaded and unloaded at 40% RH and 25° C. (typical room conditions). A moisture sorption isotherm was performed as outlined below (2 scans giving 1 complete cycle). The standard isotherm was performed at 25° C. at 10% RH intervals over a 0-90% RH range.
The software uses a least squares minimisation procedure together with a model of the mass relaxation, to predict an asymptotic value. The measured mass relaxation value must be within 5% of that predicted by the software, before the next % RH value is selected. The minimum equilibration time was set to 1 hour and the maximum to 4 hours. The sample was recovered after completion of the isotherm and re-analysed by XRPD.

[7] = listed as Compound 1 Free Base Form 1
[8] = listed as amorphous free base Compound 1

COc1cc(-c2cccc3cc([C@H](C)Nc4nc(N)ncc4C#N)n(-c4ccccc4)c(=O)c23)ccn1 [(S)-2-amino-4-((1-(8-(2-methoxypyridin-4-yl)-1-oxo-2-phenyl-1,2-dihydroisoquinolin-3-yl)ethyl)amino)pyrimidine-5-carbonitrile]
Crystallinity after standing ([1]; RT, 24 hours): decreases | Stability at ambient conditions ([1]; converts to Form 1 by hydration): unstable | solubility thermodynamic ([2]; pH 1.9, water, 0.5 g scale-up salts, pH of solution reported separately): 1900 µg/mL

CC(=O)O.COc1cc(-c2cccc3cc([C@H](C)Nc4nc(N)ncc4C#N)n(-c4ccccc4)c(=O)c23)ccn1.COc1cc(-c2cccc3cc([C@H](C)Nc4nc(N)ncc4C#N)n(-c4ccccc4)c(=O)c23)ccn1 [Batch 2 of Form 6]
Stability at 25° C./93% RH ([3]; after 1 week): Very slight changes | Stability at 40° C./75% RH ([4]; after 1 week): Very slight changes

COc1cc(-c2cccc3cc([C@H](C)Nc4nc(N)ncc4C#N)n(-c4ccccc4)c(=O)c23)ccn1 [Compound 1, (S)-2-amino-4-((1-(8-(2-methoxypyridin-4-yl)-1-oxo-2-phenyl-1,2-dihydroisoquinolin-3-yl)ethyl)amino)pyrimidine-5-carbonitrile]
solvent volumes to dissolve ([5]; 2-MeTHF, free base Form 1, shaking, if necessary heating to 40° C.): 50 vol. | solvent volumes to dissolve ([5]; DMSO, free base Form 1, shaking, if necessary heating to 40° C.): 5 vol. | solvent volumes to dissolve ([5]; EtOAC, free base Form 1, did not dissolve in up to 100 vol.): > 100 vol. | solvent volumes to dissolve ([5]; EtOH/H2O, free base Form 1, did not dissolve in up to 100 vol.): > 100 vol. | solvent volumes to dissolve ([5]; EtOH, free base Form 1, did not dissolve in up to 100 vol.): > 100 vol. | solvent volumes to dissolve ([5]; H2O, free base Form 1, did not dissolve in up to 100 vol.): > 100 vol. | solvent volumes to dissolve ([5]; MIBK, free base Form 1, shaking, if necessary heating to 40° C.): 40 vol. | solvent volumes to dissolve ([5]; MeOH/anisole (50/50 v/v), free base Form 1, shaking, if necessary heating to 40° C.): 10 vol. | solvent volumes to dissolve ([5]; MeOH, free base Form 1, shaking, if necessary heating to 40° C.): 75 vol. | solvent volumes to dissolve ([5]; TBME, free base Form 1, did not dissolve in up to 100 vol.): > 100 vol. | solvent volumes to dissolve ([5]; THF, free base Form 1, shaking, if necessary heating to 40° C.): 40 vol. | solvent volumes to dissolve ([5]; acetone, free base Form 1, did not dissolve in up to 100 vol.): > 100 vol. | solvent volumes to dissolve ([5]; acetonitrile, free base Form 1, did not dissolve in up to 100 vol.): > 100 vol. | solvent volumes to dissolve ([5]; anisole, free base Form 1, did not dissolve in up to 100 vol.): > 100 vol. | solvent volumes to dissolve ([5]; chloroform, free base Form 1, shaking, if necessary heating to 40° C.): 40 vol.

COc1cc(-c2cccc3cc([C@H](C)Nc4nc(N)ncc4C#N)n(-c4ccccc4)c(=O)c23)ccn1 [Form 1 of the 1,2-ethanedisulfonic acid salt of Compound 1] [(S)-2-amino-4-((1-(8-(2-methoxypyridin-4-yl)-1-oxo-2-phenyl-1,2-dihydroisoquinolin-3-yl)ethyl)amino)pyrimidine-5-carbonitrile]
XRPD post GVS (C2) ([6]; 0.5 g scale-up salts): Unchanged | GVS Single cycle ([6]; hygroscopicity, 25° C., 0-90% RH): Moderately hygroscopic | Storage 25° C./93% RH for 1 week: HPLC Purity ([3]; 0.5 g scale-up salts): HPLC Purity: Unchanged | Storage 25° C./93% RH for 1 week: XRPD (D8) ([3]; 0.5 g scale-up salts): XRPD (D8): Unchanged | Storage 40° C./75% RH for 1 week: HPLC Purity ([4]; 0.5 g scale-up salts): HPLC Purity: Unchanged | Storage 40° C./75% RH for 1 week: XRPD (D8) ([4]; 0.5 g scale-up salts): XRPD (D8): Unchanged | Stability on storage at 40° C./75% RH [4]: stable | Stability on storage at 40° C./75% RH ([4]; listed as mono-1,2-ethanedisulfonic acid salt): stable

COc1cc(-c2cccc3cc([C@H](C)Nc4nc(N)ncc4C#N)n(-c4ccccc4)c(=O)c23)ccn1 [Form 1 of the free base of Compound 1, (S)-2-amino-4-((1-(8-(2-methoxypyridin-4-yl)-1-oxo-2-phenyl-1,2-dihydroisoquinolin-3-yl)ethyl)amino)pyrimidine-5-carbonitrile]
RH range in which hydration to Form 3 occurs [6]: 80-90 % RH | GVS: form change with humidity ([6]; above 80% RH, listed as Free base Form 1): hydrates to a higher hydrate above 80% RH, but this re-converts to Form 1 on desorption | GVS: moisture on loading ([6]; loaded at 40% RH, 25° C., listed as Compound 1 Free Base Form 1): 0.7 % w/w | Stability on storage at 25° C./93% RH [3]: converts to Form 3 | Stability on storage at 25° C./93% RH [3, 7]: Conversion to Form 3 (FIG. 31) | Stability on storage at 25° C./93% RH ([3]; listed as Free base Form 1): conversion to Form 3 | solubility thermodynamic ([2]; water, at pH 6.85): 4 µg/mL (≈ 8.17 µM) | Stability on storage at 40° C./75% RH [4]: stable | Stability on storage at 40° C./75% RH [4, 7]: No changes in form after 1 week | Stability on storage at 40° C./75% RH ([4]; listed as Free base Form 1): did not show any changes

COc1cc(-c2cccc3cc([C@H](C)Nc4nc(N)ncc4C#N)n(-c4ccccc4)c(=O)c23)ccn1 [amorphous free base of Compound 1, (S)-2-amino-4-((1-(8-(2-methoxypyridin-4-yl)-1-oxo-2-phenyl-1,2-dihydroisoquinolin-3-yl)ethyl)amino)pyrimidine-5-carbonitrile]
Stability on storage at 25° C./93% RH [3, 8]: No changes after 1 week | Stability on storage at 40° C./75% RH [4, 8]: No changes after 1 week | Storage at elevated humidity ([4]; elevated humidity conditions, solid form): No crystallisation
